Assay results from patent publication US7202269B2, “GlyT2 modulators” (Janssen Pharmaceutica N.V., priority 2003, dated 2007).
pIC50: −log10 of the molar value.

Each compound was assayed against T1, human glycine transporter-2 (GlyT2) (Homo sapiens, UniProt Q9Y345) (assay: Inhibition of [14C]-glycine uptake in COS-7 cells transfected with human GlyT2). Details: Table 2, 20 μM, 2 h at 37° C., Cos-7 cells stably transfected with human GlyT2.
T1 construct: The entire coding region of the human GlyT2 cDNA was cloned into the mammalian expression vector pClNeo; expressed in transfected cells; host or cells: Cos-7 cells (African green monkey kidney, ATCC), stably transfected, G418-selected; vector pClNeo
T1 sequence (Q9Y345 1-797): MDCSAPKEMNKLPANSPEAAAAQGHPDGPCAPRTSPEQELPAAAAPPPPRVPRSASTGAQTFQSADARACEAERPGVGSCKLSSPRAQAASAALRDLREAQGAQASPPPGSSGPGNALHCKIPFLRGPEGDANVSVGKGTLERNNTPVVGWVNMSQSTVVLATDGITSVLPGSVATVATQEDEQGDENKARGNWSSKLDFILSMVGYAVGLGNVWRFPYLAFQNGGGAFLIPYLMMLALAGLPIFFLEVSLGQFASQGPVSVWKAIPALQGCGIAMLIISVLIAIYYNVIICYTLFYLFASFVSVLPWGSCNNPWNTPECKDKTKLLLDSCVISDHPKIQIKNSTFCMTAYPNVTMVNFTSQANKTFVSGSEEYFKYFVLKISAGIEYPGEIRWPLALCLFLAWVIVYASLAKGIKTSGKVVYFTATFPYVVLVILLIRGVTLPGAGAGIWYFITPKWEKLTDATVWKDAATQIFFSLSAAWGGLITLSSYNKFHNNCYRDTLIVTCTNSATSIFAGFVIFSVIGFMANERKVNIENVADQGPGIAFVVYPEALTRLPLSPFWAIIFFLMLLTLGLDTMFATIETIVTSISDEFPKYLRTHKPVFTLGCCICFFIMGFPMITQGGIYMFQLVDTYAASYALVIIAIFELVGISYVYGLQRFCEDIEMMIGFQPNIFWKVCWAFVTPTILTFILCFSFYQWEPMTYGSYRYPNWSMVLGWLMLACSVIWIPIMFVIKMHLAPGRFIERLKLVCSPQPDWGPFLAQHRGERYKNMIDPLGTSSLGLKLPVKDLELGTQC
Type: cell-based
Method: GlyT2 antagonist activity of representative compounds of the invention was determined in accordance with the assay described in the Examples and by measuring the ability of compounds to inhibit the uptake of [^14C]-glycine in COS-7 cells transfected with the human glycine transporter-2 (GlyT2). The GlyT2 antagonist activities of these representative compounds are set forth hereinafter in Table 1.
Cos-7 cells (African green monkey, kidney) from American Type Culture Collection were grown in DMEM supplemented with 10% fetal bovine serum. The entire coding region of the human GlyT2 cDNA was cloned into the mammalian expression vector pClNeo, and then stably transfected into Cos-7 cells. Transfection was performed essentially as described by T. W. Lovenberg et al. (Mol. Pharmacol. 1999, 55:1101–1107): Briefly, cells were grown to 70–80% confluence, removed from the plate with trypsin, and pelleted in a clinical centrifuge. The pellet was resuspended in 400 μL complete medium and transferred to an electroporation cuvette with a 0.4 cm gap between the electrodes (Bio-Rad, 165–2088). One microgram of supercoiled GlyT2 cDNA was added to the cells, and the suspension was mixed. The voltage for the electroporation was set at 0.25 kV, and the capacitance was set at 960 μF. After electroporation, the cuvette contents were diluted to 10 mL with complete medium, and 0.5 mL, 1.0 mL, 2.0 mL and remainder (˜6.5 mL) portions were plated onto four 10-cm dishes. The cells were incubated 24 h before adding 600 μg/mL G418. Colonies that survived selection were isolated and tested for GlyT2 expression.
The day before the assay, the GlyT2 expressing cells were plated into 96-well scintillating microplates (Amersham, RPNQ 0160) at a density of approximately 20,000 cells per well. Cells were grown overnight at 37° C. in 5% CO2 and then washed once with 37° C. HEPES buffered saline (HBS: 150 mM NaCl, 20 mM HEPES, 1 mM CaCl2, 10 mM glucose, 5 mM KCl, 1 mM MgCl2; pH 7.4). Eighty microliters of 37° C. HBS was subsequently added to each well. Test solutions of GlyT2 inhibitors were prepared in HBS from DMSO stock solutions, and 5 μL of test solution was added to each test well. Total transport and non-specific background were determined by adding 5 μL HBS or 5 μL 2 M glycine, respectively, to the appropriate control wells. Plates were then left at rt for 5 min before the addition of 20 μL of 100 μM ^14C-glycine (NEN, NEC 048H) to each well for a final concentration of 20 μM. Plates were incubated for 2 h at 37° C. with 5% CO2. After 2 h the reaction mixtures were removed by aspiration, and the plates were washed once with ice-cold HBS. Plates were sealed with TopSeal (Packard, 6005185) and counted on a Packard TopCount® scintillation counter.

SMILES	pIC50
O=C(Nc1cccc(Oc2ccccc2)c1)N[C@@H](Cc1ccccc1)C(=O)NCCCN1CCCC1 [Example 122, (S)-2-[3-(3-Phenoxy-phenyl)-ureido]-3-phenyl-N-(3-pyrrolidin-1-yl-propyl)-propionamide]	6.36
O=C(Nc1ccc(-c2ccccc2)cc1)N[C@@H](Cc1cccnc1)C(=O)NCCCN1CCCC1 [Example 142, (S)-2-(3-Biphenyl-4-yl-ureido)-3-pyridin-3-yl-N-(3-pyrrolidin-1-yl-propyl)-propionamide]	6.16
CC(C)[C@@H](CC(=O)NCCN(C(C)C)C(C)C)NC(=O)Nc1ccc(-c2ccccc2)cc1 [Example 146, (R)-3-(3-Biphenyl-4-yl-ureido)-4-methyl-pentanoic Acid (2-diisopropylamino-ethyl)-amide]	6.23
NCCCNC(=O)/C=C/[C@H](Cc1ccccc1)NC(=O)Nc1ccc(-c2ccccc2)cc1 [Example 152, (E)-(S)-4-(3-Biphenyl-4-yl-ureido)-5-phenyl-pent-2-enoic Acid (3-amino-propyl)-amide]	5.50
O=C(Nc1ccc(Oc2ccccc2)cc1)N[C@H](CNCCN1CCCC1)Cc1ccccc1 [Example 157, 1-[(S)-1-Benzyl-2-(2-pyrrolidin-1-yl-ethylamino)-ethyl]-3-(4-phenoxy-phenyl)-urea]	6.74

More lines, now with the values ahead:

pIC50	SMILES
5.10	O=C(Nc1ccc(-c2ccccc2)cc1)NC(C(=O)NCCN1CCCC1)(c1ccccc1)c1ccccc1 [Example 143, 2-(3-Biphenyl-4-yl-ureido)-2,2-diphenyl-N-(2-pyrrolidin-1-yl-ethyl)-acetamide]
6.00	O=C(Nc1cccc(-c2ccccc2)c1)N[C@@H](Cc1ccccc1)C(=O)NCCCN1CCCC1 [Example 150, (S)-2-(3-Biphenyl-3-yl-ureido)-3-phenyl-N-(3-pyrrolidin-1-yl-propyl)-propionamide]
6.47	O=C(Nc1ccc(-c2ccccc2)cc1)N[C@@H](CCCNCCN1CCCC1)Cc1ccccc1 [Example 158, 1-[(S)-1-Benzyl-4-(2-pyrrolidin-1-yl-ethylamino)-butyl]-3-biphenyl-4-yl-urea]
